Where “and” joins values, the source holds several entries; their conditions need not be identical. Equal values may be shown once. Read-outs that look alike come from different tables or passages of the source.
Experiments:
human α-thrombin = human α-thrombin (Homo sapiens, UniProt P00734); test: Protease inhibition, Ki for human α-thrombin (fluorogenic substrate Z-Gly-Gly-Arg-AMC); format: biochemical; conditions: for slope normalized to DMSO, human alpha thrombin inhibition: replicates R1-R3
In short: (§1)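 Ki derived through Cheng–Prusoff from IC50s (four-parameter logistic fit) against activity of peptide-free controls. Product fluorescence was read every 3 min over 30 min at 25 °C, substrate Z-Gly-Gly-Arg-AMC at 50 μM. Enzyme was 2 nM human or 3 nM rat α-thrombin, pH 7.4 buffer.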

rat α-thrombin = target: T1, rat α-thrombin (Rattus norvegicus, UniProt P18292); test: Protease inhibition, Ki for rat α-thrombin (fluorogenic substrate Z-Gly-Gly-Arg-AMC); format: biochemical; conditions: for slope normalized to DMSO, rat alpha thrombin inhibition: replicates R1-R3
T1 construct: rat α-thrombin (Molecular Innovations) were used at final concentrations of 2 nM and 3 nM; purchased Molecular Innovations
In short: as §1

[1] = Passive artificial membrane permeability (PAMPA);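 on Permeability% Average: top well sample relative to theoretical equilibrium sample by TIC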

Ki (human α-thrombin; average of R1-R3, read-out: Ki Average, human alpha thrombin inhibition): 204 nM
IC50 (human α-thrombin; individual replicates R1-R3, read-out: IC50, human alpha thrombin inhibition): 273 nM and 252 nM and 268 nM
slope normalized to DMSO, human alpha thrombin inhibition (human α-thrombin; peptide 1.00E+02 uM): 11.3 and 11.6 and 10.6
slope normalized to DMSO, human alpha thrombin inhibition (human α-thrombin; peptide 1.19E-05 uM): 102.6 and 106.2 and 105.7
slope normalized to DMSO, human alpha thrombin inhibition (human α-thrombin; peptide 1.22E-02 uM): 98.0 and 95.4 and 97.5
slope normalized to DMSO, human alpha thrombin inhibition (human α-thrombin; peptide 1.25E+01 uM): 13.9 and 11.8 and 11.3
slope normalized to DMSO, human alpha thrombin inhibition (human α-thrombin; peptide 1.53E-03 uM): 101.7 and 103.3 and 104.5
slope normalized to DMSO, human alpha thrombin inhibition (human α-thrombin; peptide 1.56E+00 uM): 26.6 and 25.5 (2×)
slope normalized to DMSO, human alpha thrombin inhibition (human α-thrombin; peptide 1.91E-04 uM): 103.0 and 99.2 and 105.0
slope normalized to DMSO, human alpha thrombin inhibition (human α-thrombin; peptide 1.95E-01 uM): 64.4 and 63.8 and 63.5
slope normalized to DMSO, human alpha thrombin inhibition (human α-thrombin; peptide 2.38E-05 uM): 102.9 and 103.4 and 104.0
slope normalized to DMSO, human alpha thrombin inhibition (human α-thrombin; peptide 2.44E-02 uM): 93.3 and 91.7 and 93.0
slope normalized to DMSO, human alpha thrombin inhibition (human α-thrombin; peptide 2.50E+01 uM): 12.2 and 11.9 and 11.6
slope normalized to DMSO, human alpha thrombin inhibition (human α-thrombin; peptide 3.05E-03 uM): 101.3 and 101.9 and 102.4
slope normalized to DMSO, human alpha thrombin inhibition (human α-thrombin; peptide 3.12E+00 uM): 19.4 (2×) and 18.4
slope normalized to DMSO, human alpha thrombin inhibition (human α-thrombin; peptide 3.81E-04 uM): 103.1 and 102.3 and 104.4
slope normalized to DMSO, human alpha thrombin inhibition (human α-thrombin; peptide 3.91E-01 uM): 49.6 and 45.7 and 49.0
slope normalized to DMSO, human alpha thrombin inhibition (human α-thrombin; peptide 4.77E-05 uM): 101.9 and 103.1 and 105.2
slope normalized to DMSO, human alpha thrombin inhibition (human α-thrombin; peptide 4.88E-02 uM): 85.5 and 84.9 and 86.4
slope normalized to DMSO, human alpha thrombin inhibition (human α-thrombin; peptide 5.00E+01 uM): 11.7 and 11.4 and 7.8
slope normalized to DMSO, human alpha thrombin inhibition (human α-thrombin; peptide 6.10E-03 uM): 99.7 and 99.5 and 102.0
slope normalized to DMSO, human alpha thrombin inhibition (human α-thrombin; peptide 6.25E+00 uM): 15.9 and 15.6 and 14.9
slope normalized to DMSO, human alpha thrombin inhibition (human α-thrombin; peptide 7.63E-04 uM): 102.4 (2×) and 103.3
slope normalized to DMSO, human alpha thrombin inhibition (human α-thrombin; peptide 7.81E-01 uM): 36.6 and 35.0 and 35.1
slope normalized to DMSO, human alpha thrombin inhibition (human α-thrombin; peptide 9.54E-05 uM): 103.4 and 102.3 and 101.0
slope normalized to DMSO, human alpha thrombin inhibition (human α-thrombin; peptide 9.77E-02 uM): 76.3 and 76.5 and 77.1
Ki (rat α-thrombin; average of R1-R3, read-out: Ki Average, rat alpha thrombin inhibition): 36.4 nM
IC50 (rat α-thrombin; individual replicates R1-R3, read-out: IC50, rat alpha thrombin inhibition): 67 nM and 66.1 nM and 64.2 nM
Ki (rat α-thrombin; individual replicates R1-R3, read-out: Ki, rat alpha thrombin inhibition): 37.1 nM and 36.6 nM and 35.6 nM
slope normalized to DMSO, rat alpha thrombin inhibition (rat α-thrombin; peptide 1.00E+02 uM): 6.9 and 7.8 and 7.9
slope normalized to DMSO, rat alpha thrombin inhibition (rat α-thrombin; peptide 1.19E-05 uM): 99.4 and 99.8 and 100.7
slope normalized to DMSO, rat alpha thrombin inhibition (rat α-thrombin; peptide 1.22E-02 uM): 80.5 and 81.1 and 80.7
slope normalized to DMSO, rat alpha thrombin inhibition (rat α-thrombin; peptide 1.25E+01 uM): 8.5 and 8.3 (2×)
slope normalized to DMSO, rat alpha thrombin inhibition (rat α-thrombin; peptide 1.53E-03 uM): 95.1 and 94.7 (2×)
slope normalized to DMSO, rat alpha thrombin inhibition (rat α-thrombin; peptide 1.56E+00 uM): 12.6 and 12.3 and 12.5
slope normalized to DMSO, rat alpha thrombin inhibition (rat α-thrombin; peptide 1.91E-04 uM): 97.1 (2×) and 95.3
slope normalized to DMSO, rat alpha thrombin inhibition (rat α-thrombin; peptide 1.95E-01 uM): 34.2 and 33.8 and 33.2
slope normalized to DMSO, rat alpha thrombin inhibition (rat α-thrombin; peptide 2.38E-05 uM): 93.5 and 98.9 and 98.6
slope normalized to DMSO, rat alpha thrombin inhibition (rat α-thrombin; peptide 2.44E-02 uM): 71.8 and 70.1 and 71.0
slope normalized to DMSO, rat alpha thrombin inhibition (rat α-thrombin; peptide 2.50E+01 uM): 8.3 and 8.0 and 8.8
slope normalized to DMSO, rat alpha thrombin inhibition (rat α-thrombin; peptide 3.05E-03 uM): 90.8 and 91.5 and 91.2
slope normalized to DMSO, rat alpha thrombin inhibition (rat α-thrombin; peptide 3.12E+00 uM): 10.1 (2×) and 10.3
slope normalized to DMSO, rat alpha thrombin inhibition (rat α-thrombin; peptide 3.81E-04 uM): 97.2 and 95.5 and 95.9
slope normalized to DMSO, rat alpha thrombin inhibition (rat α-thrombin; peptide 3.91E-01 uM): 22.7 and 22.8 and 22.5
slope normalized to DMSO, rat alpha thrombin inhibition (rat α-thrombin; peptide 4.77E-05 uM): 97.5 and 97.4 and 98.2
slope normalized to DMSO, rat alpha thrombin inhibition (rat α-thrombin; peptide 4.88E-02 uM): 57.9 and 58.1 and 57.0
slope normalized to DMSO, rat alpha thrombin inhibition (rat α-thrombin; peptide 5.00E+01 uM): 8.1 (2×) and 8.0
slope normalized to DMSO, rat alpha thrombin inhibition (rat α-thrombin; peptide 6.10E-03 uM): 75.2 and 85.9 and 86.8
slope normalized to DMSO, rat alpha thrombin inhibition (rat α-thrombin; peptide 6.25E+00 uM): 9.3 (2×) and 10.3
slope normalized to DMSO, rat alpha thrombin inhibition (rat α-thrombin; peptide 7.63E-04 uM): 94.5 (2×) and 95.4
slope normalized to DMSO, rat alpha thrombin inhibition (rat α-thrombin; peptide 7.81E-01 uM): 16.5 and 16.1 and 16.2
slope normalized to DMSO, rat alpha thrombin inhibition (rat α-thrombin; peptide 9.54E-05 uM): 96.4 and 97.0 and 98.4
slope normalized to DMSO, rat alpha thrombin inhibition (rat α-thrombin; peptide 9.77E-02 uM): 46.4 and 46.1 and 46.7
PAMPA permeability: % permeability ([1]; 50 μM, 12–18 h, acceptor concentration relative to equilibrium): 66 ± 14%
Permeability% (single replicates R1–R3) ([1]; 50 μM, 12 h (Fig. 6d)): 56.67% and 58.98% and 81.87%
Permeability% Average ([1]; 50 μM, 12 h (Fig. 6d)): 65.8%
Papp at 50 μM ([1]; PAMPA, pH 7.4): 10.7 ×10⁻⁶ cm/s
Compound: O=C1C[C@H]2CCCN2C(=O)[C@H](Cc2ccccc2)NC(=O)[C@@H](NC(=O)c2ccc(Cl)cc2F)CCC=CCCCCN1 [compound 45]
Ki (human α-thrombin; individual replicates R1-R3, read-out: Ki, human alpha thrombin inhibition): 210 nM (2×) and 194 nM (2×) and 207 nM (2×)

From publication PMC11062899, “De novo development of small cyclic peptides that are orally bioavailable” (Nature Chemical Biology, 2023)
